Experiments:
H3K56ac = experiment: Histone H3 Lys 56 acetylation (H3K56ac) western blotting; assay type: cell-based, human; conditions: HCT116 cells, 24 h, screen at 0.1, 1, 10 μM; relative to DMSO, CI-994 and 1 at 10 μM
From the text: Supporting Information: Biology
Representative blots of two independent biological replicates.

HDAC1 = HDAC1 (Homo sapiens, UniProt Q13547); experiment: HDAC1 degradation by quantitative western blotting in HCT116 cells; conditions: HCT116 cells, 24 h, 0.1, 1 and 10 μM; compared with 1 at 10 μM
HDAC1, sequence (Q13547 whole entry): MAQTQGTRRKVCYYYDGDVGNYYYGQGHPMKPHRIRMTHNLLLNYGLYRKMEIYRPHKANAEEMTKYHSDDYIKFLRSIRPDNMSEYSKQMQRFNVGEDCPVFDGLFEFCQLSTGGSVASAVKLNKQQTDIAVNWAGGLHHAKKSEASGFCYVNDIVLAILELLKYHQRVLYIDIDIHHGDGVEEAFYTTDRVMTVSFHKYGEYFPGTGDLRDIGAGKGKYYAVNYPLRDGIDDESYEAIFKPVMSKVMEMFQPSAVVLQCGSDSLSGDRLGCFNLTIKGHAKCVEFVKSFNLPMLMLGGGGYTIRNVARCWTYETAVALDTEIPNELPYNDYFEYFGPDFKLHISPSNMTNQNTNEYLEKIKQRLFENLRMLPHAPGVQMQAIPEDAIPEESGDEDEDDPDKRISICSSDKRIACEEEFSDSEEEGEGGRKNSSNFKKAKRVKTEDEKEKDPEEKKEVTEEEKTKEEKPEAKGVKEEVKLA
Protocol: Initially, each PROTAC was tested at 0.1, 1, and 10 μM in HCT116 cells for 24 h; then, cell extracts were prepared and evaluated for HDAC1/2 and 3 degradation by quantitative western blotting.
This cell line was incubated at 37 °C with 5% CO2.
HCT116 cells were seeded into 6-well plates (4 × 10^5 cells/well for 24 h, 2 × 10^5 cells/well for 48 h) for 24 h and then treated with DMSO or compounds at the indicated concentrations in fresh medium (5 mL total). After desired treatment time, the cells were harvested and then lysed in lysis buffer (50 mM Tris-HCl, 150 mM NaCl, 0.5% NP-40, 0.5% Triton X-100) supplemented with a protease inhibitor (Sigma, P8340). The suspension was incubated on ice for 30 min and centrifuged (18,000 rcf, 15 min, 4 °C); then, the supernatant was collected, and protein concentrations were quantified via Bradford Assay using Protein Assay Dye Reagent Concentrate (BIO-RAD). […] PageRuler Plus Prestained Ladder was used for size standards. After gel electrophoresis at 140 V for 90 min, the separated proteins were transferred onto a nitrocellulose membrane at 30 V for 60 min. The membranes were probed with primary antibodies (see the Supporting Information) for 60−90 min. Blots were developed with complimentary IRDye-conjugated secondary antibodies, and the bands were visualized using an Odyssey infrared imaging system. Image processing and band intensity quantification were performed using Image Studio Lite.

HDAC2 = HDAC2 (Homo sapiens, UniProt Q92769); experiment: HDAC2 degradation by quantitative western blotting in HCT116 cells; conditions: HCT116 cells, 24 h, 0.1, 1 and 10 μM; compared with 1 at 10 μM
HDAC2, sequence (Q92769 whole entry): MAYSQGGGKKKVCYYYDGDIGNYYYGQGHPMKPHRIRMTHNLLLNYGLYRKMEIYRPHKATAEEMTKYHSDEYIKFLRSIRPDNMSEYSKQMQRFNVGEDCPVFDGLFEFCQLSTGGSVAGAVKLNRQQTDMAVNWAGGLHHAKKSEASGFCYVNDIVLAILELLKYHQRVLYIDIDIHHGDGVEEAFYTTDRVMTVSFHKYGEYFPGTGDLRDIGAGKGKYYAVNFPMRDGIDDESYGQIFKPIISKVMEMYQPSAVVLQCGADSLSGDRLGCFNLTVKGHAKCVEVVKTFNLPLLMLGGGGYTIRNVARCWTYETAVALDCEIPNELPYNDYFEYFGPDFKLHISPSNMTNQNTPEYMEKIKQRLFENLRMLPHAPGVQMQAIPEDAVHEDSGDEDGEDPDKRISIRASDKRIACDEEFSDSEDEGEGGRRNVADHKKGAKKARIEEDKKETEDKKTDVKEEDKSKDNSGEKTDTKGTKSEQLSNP

SMILES | H3K56ac levels (in words) (H3K56ac) | HDAC1 degradation in initial screen (in words) (HDAC1) | HDAC2 degradation in initial screen (in words) (HDAC2)
Cc1ncsc1-c1ccc(CNC(=O)[C@@H]2C[C@@H](O)CN2C(=O)[C@@H](NC(=O)CCCCCCCCCC(=O)Nc2ccc(C(=O)Nc3ccccc3N)cc2)C(C)(C)C)cc1 [Compound 4, N1-(4-((2-Aminophenyl)carbamoyl)phenyl)-N11-((S)-1-((2S,4R)-4-hydroxy-2-((4-(4-methylthiazol5-yl)benzyl)carbamoyl)pyrrolidin-1-yl)-3,3-dimethyl-1-oxobutan-2-yl)undecanediamide] | increased H3K56ac levels to the same degree as the 12-atom linker 1 | directly comparable to those of the 12-atom linker 1 | 
CC(=O)NC(C(=O)N1C[C@H](O)C[C@H]1C(=O)NCc1ccc(-c2scnc2C)cc1OCCCCNC(=O)CCCCCCCC(=O)Nc1ccc(C(=O)Nc2ccccc2N)cc1)C(C)(C)C (stereo in doubt) [Compound 24, N1-(4-(2-(((2S,4R)-1-((S)-2-Acetamido-3,3-dimethylbutanoyl)-4-hydroxypyrrolidine-2-carboxamido)methyl)-5-(4-methylthiazol-5-yl)-phenoxy)butyl)-N9-(4-((2-aminophenyl)carbamoyl)phenyl)-nonanediamide] | did not increase H3K56ac levels greater than the DMSO control | only modest degradation of HDAC1 | 
Cc1ncsc1-c1ccc(CNC(=O)[C@@H]2C[C@@H](O)CN2C(=O)[C@@H](NC(=O)CCCCCCCCCCC(=O)Nc2ccc(C(=O)Nc3cc(-c4cccs4)ccc3N)cc2)C(C)(C)C)cc1 [Compound 19, N1-(4-((2-Amino-5-(thiophen-2-yl)phenyl)carbamoyl)phenyl)-N12-((S)-1-((2S,4R)-4-hydroxy-2-((4-(4-methylthiazol-5-yl)benzyl)-carbamoyl)pyrrolidin-1-yl)-3,3-dimethyl-1-oxobutan-2-yl)-dodecanediamide] |  | did not result in enhanced degradation potency of HDAC1/2 | did not result in enhanced degradation potency of HDAC1/2
CC(=O)NC(C(=O)N1C[C@H](O)C[C@H]1C(=O)NCc1ccc(-c2scnc2C)cc1OCCCCNC(=O)CCCCC(=O)Nc1ccc(C(=O)Nc2ccccc2N)cc1)C(C)(C)C (stereo in doubt) [Compound 23, N1-(4-(2-(((2S,4R)-1-((S)-2-Acetamido-3,3-dimethylbutanoyl)-4-hydroxypyrrolidine-2-carboxamido)methyl)-5-(4-methylthiazol-5-yl)phenoxy)butyl)-N6-(4-((2-aminophenyl)carbamoyl)phenyl)-adipamide] | did not increase H3K56ac levels greater than the DMSO control | only modest degradation of HDAC1 | 
Cc1ncsc1-c1ccc(CNC(=O)[C@@H]2C[C@@H](O)CN2C(=O)[C@@H](NC(=O)CCCCCCCC(=O)Nc2ccc(C(=O)Nc3cc(-c4cccs4)ccc3N)cc2)C(C)(C)C)cc1 [Compound 18, N1-(4-((2-Amino-5-(thiophen-2-yl)phenyl)carbamoyl)phenyl)-N9-((S)-1-((2S,4R)-4-hydroxy-2-((4-(4-methylthiazol-5-yl)benzyl)-carbamoyl)pyrrolidin-1-yl)-3,3-dimethyl-1-oxobutan-2-yl)-nonanediamide] |  | did not result in enhanced degradation potency of HDAC1/2 | did not result in enhanced degradation potency of HDAC1/2

Reference: PMC9014412 (Journal of medicinal chemistry, 2022)
